By melting point is commonly meant the temperature of the solid-liquid transition. Turning to `O=C(/C=C/c1ccc(O)cc1)CC(=O)/C=C/c1ccc(O)cc1Cl` [CU127, (1E,6E)-1-(2-chloro-4-hydroxyphenyl)-7-(4-hydroxyphenyl)hepta-1,6-diene-3,5-dione], the melting point fell in the range of 131 to 138 °C. For `COc1ccc(/C=C/C(=O)CC(=O)/C=C/c2cc3ccccc3n2C)cc1O` [CU128, (1E,6E)-1-(3-hydroxy-4-methoxyphenyl)-7-(1-methyl-1H-indol-2-yl)hepta-1,6-diene-3,5-dione], the melting point fell in the range of 185 to 193 °C.

The molecule `COc1cc(/C=C/C(=O)CC(=O)/C=C/c2ccc(O)cc2Cl)ccc1O` [CU129, (1E,6E)-1-(2-chloro-4-hydroxyphenyl)-7-(4-hydroxy-3-methoxyphenyl)hepta-1,6-diene-3,5-dione] showed a melting point of 185 to 192 °C. In the case of `COc1ccc(/C=C/C(=O)CC(=O)/C=C/c2ccc(O)cc2Cl)cc1O` [CU130, (1E,6E)-1-(2-chloro-4-hydroxyphenyl)-7-(3-hydroxy-4-methoxyphenyl)hepta-1,6-diene-3,5-dione], the melting point lay within 120 to 130 °C. With `COc1cc(/C=C/C(=O)CC(=O)/C=C/c2ccc(O)cc2)cc(OC)c1O` [CU134, (1E,6E)-1-(4-hydroxy-3,5-dimethoxyphenyl)-7-(4-hydroxyphenyl)hepta-1,6-diene-3,5-dione] the figure was 228 to 233 °C; with `COc1ccc(/C=C/C(=O)CC(=O)/C=C/c2cc(OC)c(O)c(OC)c2)cc1O` [CU136, (1E,6E)-1-(4-hydroxy-3,5-dimethoxyphenyl)-7-(3-hydroxy-4-methoxyphenyl)hepta-1,6-diene-3,5-dione], 91 to 95 °C. `COc1cc(/C=C/C(=O)CC(=O)/C=C/c2ccc(O)cc2)ccc1F` [CU137, (1E,6E)-1-(4-fluoro-3-methoxyphenyl)-7-(4-hydroxyphenyl)hepta-1,6-diene-3,5-dione] registered a melting point of 136 to 143 °C. `COc1cc(/C=C/C(=O)CC(=O)/C=C/c2ccc(F)c(OC)c2)ccc1O` [CU138, (1E,6E)-1-(4-fluoro-3-methoxyphenyl)-7-(4-hydroxy-3-methoxyphenyl)hepta-1,6-diene-3,5-dione] returned a melting point of 150 to 155 °C. `COc1ccc(/C=C/C(=O)CC(=O)/C=C/c2ccc(F)c(OC)c2)cc1O` [CU139, (1E,6E)-1-(4-fluoro-3-methoxyphenyl)-7-(3-hydroxy-4-methoxyphenyl)hepta-1,6-diene-3,5-dione] displayed a melting point of 145 to 147 °C. Molecule `COc1cc(/C=C/C(=O)CC(=O)/C=C/c2cc(Cl)cc(Cl)c2)ccc1O` [CU140, (1E,6E)-1-(3,5-dichlorophenyl)-7-(4-hydroxy-3-methoxyphenyl)hepta-1,6-diene-3,5-dione] registered a melting point of 170 to 173 °C. As for `COc1ccc(/C=C/C(=O)CC(=O)/C=C/c2cc(Cl)cc(Cl)c2)cc1O` [CU141, (1E,6E)-1-(3,5-dichlorophenyl)-7-(3-hydroxy-4-methoxyphenyl)hepta-1,6-diene-3,5-dione], the figure is 176 to 183 °C; as for `O=C(/C=C/c1ccc(O)cc1)CC(=O)/C=C/c1ncc[nH]1` [CU143, (1E,6E)-1-(4-hydroxyphenyl)-7-(1H-imidazol-2-yl)hepta-1,6-diene-3,5-dione], 175 to 181 °C. For the molecule `COc1cc(/C=C/C(=O)CC(=O)/C=C/c2ccc(Cl)cc2Cl)ccc1O` [CU144, (1E,6E)-1-(2,4-dichlorophenyl)-7-(4-hydroxy-3-methoxyphenyl)hepta-1,6-diene-3,5-dione], the melting point fell in the range of 124 to 130 °C. As for `COc1cc(/C=C/C(=O)CC(=O)/C=C/c2cc3ccccc3n2C)ccc1O` [CU147, (1E,6E)-1-(4-hydroxy-3-methoxyphenyl)-7-(1-methyl-1H-indol-2-yl)hepta-1,6-diene-3,5-dione], the figure is 167 to 170 °C; as for `O=C(/C=C/c1ccc(O)cc1)CC(=O)/C=C/c1ccc2ccccc2c1` [CU149, (1E,6E)-1-(4-hydroxyphenyl)-7-(naphthalen-2-yl)hepta-1,6-diene-3,5-dione], 225 to 230 °C; as for `COc1ccc(/C=C/C(=O)CC(=O)/C=C/c2ncc[nH]2)cc1O` [CU151, (1E,6E)-1-(3-hydroxy-4-methoxyphenyl)-7-(1H-imidazol-2-yl)hepta-1,6-diene-3,5-dione], 219 to 221 °C. `COc1cc(/C=C/C(=O)CC(=O)/C=C/c2ncc[nH]2)ccc1O` [CU152, (1E,6E)-1-(4-hydroxy-3-methoxyphenyl)-7-(1H-imidazol-2-yl)hepta-1,6-diene-3,5-dione] had a melting point of 235 to 240 °C. Consider `COc1cc(/C=C/C(=O)CC(=O)/C=C/c2ccc(N(C)C)cc2OC)ccc1O` [CU154, (1E,6E)-1-(4-dimethylamino-2-methoxyphenyl)-7-(4-hydroxy-3-methoxyphenyl)hepta-1,6-diene-3,5-dione], for which the melting point lay within 117 to 119 °C. As to `COc1ccc(/C=C/C(=O)CC(=O)/C=C/c2ccc(N(C)C)cc2OC)cc1O` [CU155, (1E,6E)-1-(4-dimethylamino-2-methoxyphenyl)-7-(3-hydroxy-4-methoxyphenyl)hepta-1,6-diene-3,5-dione], the melting point fell in the range of 108 to 113 °C. With `O=C(/C=C/c1ccc(O)cc1)CC(=O)/C=C/c1c[nH]cn1` [CU157, (1E,6E)-1-(4-hydroxyphenyl)-7-(1H-imidazol-4-yl)hepta-1,6-diene-3,5-dione] the figure was 168 to 172 °C; with `COc1cccc(/C=C/C(=O)CC(=O)/C=C/c2ccc(O)cc2)c1` [CU158, (1E,6E)-1-(4-hydroxyphenyl)-7-(3-methoxyphenyl)hepta-1,6-diene-3,5-dione], 74 to 80 °C.

`COc1ccc(/C=C/C(=O)CC(=O)/C=C/c2ccc(OC)c3ccccc23)cc1O` [CU163, (1E,6E)-1-(3-hydroxy-4-methoxyphenyl)-7-(4-methoxynaphthalen-1-yl)hepta-1,6-diene-3,5-dione] showed a melting point of 170 to 175 °C. As for `COc1ccc(/C=C/C(=O)CC(=O)/C=C/c2ccc3ccccc3c2)cc1O` [CU165, (1E,6E)-1-(3-hydroxy-4-methoxyphenyl)-7-(naphthalen-2-yl)hepta-1,6-diene-3,5-dione], the figure is 193 to 194 °C; as for `COc1ccc2cc(/C=C/C(=O)CC(=O)/C=C/c3ccc(O)cc3)ccc2c1` [CU166, (1E,6E)-1-(4-hydroxyphenyl)-7-(6-methoxynaphthalen-2-yl)hepta-1,6-diene-3,5-dione], 217 to 220 °C; as for `COc1ccc(/C=C/C(=O)CC(=O)/C=C/c2ccc(N(C)C)c3ccccc23)cc1O` [CU168, (1E,6E)-1-(4-dimethylaminonaphthalen-1-yl)-7-(3-hydroxy-4-methoxyphenyl)hepta-1,6-diene-3,5-dione], 146 to 150 °C. With `COc1ccc2cc(/C=C/C(=O)CC(=O)/C=C/c3ccc(OC)c(O)c3)ccc2c1` [CU171, (1E,6E)-1-(3-hydroxy-4-methoxyphenyl)-7-(6-methoxynaphthalen-2-yl)hepta-1,6-diene-3,5-dione] the figure was 175 to 181 °C; with `COc1c(O)cccc1/C=C/C(=O)CC(=O)/C=C/c1ccc(O)cc1` [CU174, (1E,6E)-1-(4-hydroxyphenyl)-7-(3-hydroxy-2-methoxyphenyl)hepta-1,6-diene-3,5-dione], 165 to 169 °C; with `COc1cc(/C=C/C(=O)CC(=O)/C=C/c2cc(O)ccc2OC)ccc1O` [CU178, (1E,6E)-1-(4-hydroxy-3-methoxyphenyl)-7-(5-hydroxy-2-methoxyphenyl)hepta-1,6-diene-3,5-dione], 75 to 80 °C.

Take `COc1ccc(/C=C/C(=O)CC(=O)/C=C/c2cc(O)ccc2OC)cc1O` [CU179, (1E,6E)-1-(3-hydroxy-4-methoxyphenyl)-7-(5-hydroxy-2-methoxyphenyl)hepta-1,6-diene-3,5-dione]: the melting point was 116 to 120 °C. With `COc1cc(O)cc(/C=C/C(=O)CC(=O)/C=C/c2ccc(O)cc2)c1` [CU180, (1E,6E)-1-(4-hydroxyphenyl)-7-(3-hydroxy-5-methoxyphenyl)hepta-1,6-diene-3,5-dione] the figure was 161 to 165 °C; with `COc1cc(O)cc(/C=C/C(=O)CC(=O)/C=C/c2ccc(O)c(OC)c2)c1` [CU181, (1E,6E)-1-(3-hydroxy-5-methoxyphenyl)-7-(4-hydroxy-3-methoxyphenyl)hepta-1,6-diene-3,5-dione], 69 to 75 °C. With `COc1cc(O)cc(/C=C/C(=O)CC(=O)/C=C/c2ccc(OC)c(O)c2)c1` [CU182, (1E,6E)-1-(3-hydroxy-4-methoxyphenyl)-7-(3-hydroxy-5-methoxyphenyl)hepta-1,6-diene-3,5-dione] the figure was 196 to 200 °C; with `COc1cc(/C=C/C(=O)CC(=O)/C=C/c2cc(Cl)ccc2Cl)ccc1O` [CU184, (1E,6E)-1-(2,5-dichlorophenyl)-7-(4-hydroxy-3-methoxyphenyl)hepta-1,6-diene-3,5-dione], 142 to 147 °C.

`COc1ccc(/C=C/C(=O)CC(=O)/C=C/c2cc(Cl)ccc2Cl)cc1O` [CU185, (1E,6E)-1-(2,5-dichlorophenyl)-7-(3-hydroxy-4-methoxyphenyl)hepta-1,6-diene-3,5-dione] came in with a melting point of 140 to 146 °C. As for `COc1cc(/C=C/C(=O)CC(=O)/C=C/c2ccc3[nH]ccc3c2)ccc1O` [CU188, (1E,6E)-1-(4-hydroxy-3-methoxyphenyl)-7-(1H-indol-5-yl)hepta-1,6-diene-3,5-dione], the figure is 135 to 138 °C; as for `COc1ccc(/C=C/C(=O)CC(=O)/C=C/c2ccc3cc[nH]c3c2)cc1O` [CU191, (1E,6E)-1-(3-hydroxy-4-methoxyphenyl)-7-(1H-indol-6-yl)hepta-1,6-diene-3,5-dione], 197 to 202 °C; as for `COc1cc(/C=C/C(=O)CC(=O)/C=C/c2ccc(N(C)C)cc2[N+](=O)[O-])ccc1O` [CU192, (1E,6E)-1-(4-dimethylamino-2-nitrophenyl)-7-(4-hydroxy-3-methoxyphenyl)hepta-1,6-diene-3,5-dione], 203 to 210 °C. `COc1cc(/C=C/C(=O)CC(=O)/C=C/c2ccc(N(C)C)cc2Cl)ccc1O` [CU196, (1E,6E)-1-(2-chloro-4-dimethylaminophenyl)-7-(4-hydroxy-3-methoxyphenyl)hepta-1,6-diene-3,5-dione] registered a melting point of 113 to 120 °C.

These data come from US8962674B2 (Tokyo Institute of Technology, priority 2006, dated 2015).
